Earlier results in publication PMC6311893, “Computational prediction of plasma protein binding of cyclic peptides from small molecule experimental data using sparse modeling techniques” (BMC Bioinformatics, 2018).
Like-named read-outs stand apart in the source and are kept apart here.

Experiments:
plasma protein [1] = settings: cited from earlier work
plasma protein [2] = settings: fraction bound (0-1); public cyclic peptide drug dataset; ref DrugBank [39]; cited from earlier work
[3] = fraction bound to plasma protein, small molecule dataset, sheet 1-SM (Set Dte = test, Dtr = training), ref Ingle et al.
[4] = fraction bound to plasma protein, small molecule dataset, sheet 1-SM, ref Ingle et al.
[5] = fraction bound to plasma protein, small molecule dataset, sheet 1-SM, Set Dtr, ref Ingle et al.

CCOc1ccc2ccccc2c1C(=O)N[C@@H]1C(=O)N2[C@@H]1SC(C)(C)[C@@H]2C(=O)O [Nafcillin]
PPB (fb) (plasma protein [1]; [3]): 0.88

Nimodipine
PPB (fb) (plasma protein [1]; plasma): 0.98

CCN(CC)CCNC(=O)c1cc(Br)c(N)cc1OC [Bromopride]
PPB (fb) (plasma protein [1]; [3]): 0.4

CC(C)CN(C[C@@H](O)[C@H](Cc1ccccc1)NC(=O)O[C@H]1CCOC1)S(=O)(=O)c1ccc(N)cc1 [amprenavir]
PPB (fb) (plasma protein [1]; [3]): 0.9

CN1C(=O)CC(C)(c2ccccc2)C1=O (stereo not shown) [mesuximide]
PPB (fb) (plasma protein [1]; [4]): 0

nafarelin
PPB (fb) (plasma protein [1]; plasma): 0.8

CNCCCC1c2ccccc2C=Cc2ccccc21 [protriptyline]
PPB (fb) (plasma protein [1]; [3]): 0.92

Cn1cc[nH]c1=S [thiamazole]
PPB (fb) (plasma protein [1]; [3]): 0

O=C(OC1Cc2c(O)cc(O)cc2OC1c1cc(O)c(O)c(O)c1)c1cc(O)c(O)c(O)c1 (stereo not shown) [Epigallocatechin gallate]
PPB (fb) (plasma protein [1]; [4]): 0.91

CC1(C)SC2C(NC(=O)Cc3cccs3)C(=O)N2C1C(=O)O (stereo not shown) [penicillin71]
PPB (fb) (plasma protein [1]; plasma): 0.58

C#CC1(O)CC[C@H]2[C@@H]3CCC4=CC(=O)CC[C@@H]4[C@H]3CC[C@@]21CC (stereo partly shown) [norgestrel]
PPB (fb) (plasma protein [1]; [3]): 0.97

CN1C[C@H](C(=O)N[C@]2(C)O[C@@]3(O)[C@@H]4CCCN4C(=O)[C@H](Cc4ccccc4)N3C2=O)C=C2c3cccc4[nH]cc(c34)C[C@H]21 [Ergotamine]
PPB (fb) (plasma protein [1]; plasma): 0.96

O=C1c2c(O)ccc(O)c2C(=O)c2c(NCCNCCO)ccc(NCCNCCO)c21 [Mitoxantrone]
PPB (fb) (plasma protein [1]; [3]): 0.8

Cc1cn[nH]c1 [fomepizole]
PPB (fb) (plasma protein [1]; [4]): 0

CCC1(c2ccccc2)CCC(=O)NC1=O (stereo not shown) [glutethimide]
PPB (fb) (plasma protein [1]; plasma): 0.5

CN1C(=O)C(O)N=C(c2ccccc2Cl)c2cc(Cl)ccc21 (stereo not shown) [Lormetazepam]
PPB (fb) (plasma protein [1]; plasma): 0.86

CC1=C(CC(=O)O)c2cc(F)ccc2/C1=C\c1ccc([S+](C)[O-])cc1 (stereo not shown) [sulindac]
PPB (fb) (plasma protein [1]; [4]): 0.93

Cc1nc2n(c(=O)c1CCN1CCC(c3noc4cc(F)ccc34)CC1)CCCC2O (stereo not shown) [9-Hydroxyrisperidone]
PPB (fb) (plasma protein [1]; [3]): 0.77

N[C@@H](C(=O)N[C@@H]1C(=O)N2C(C(=O)O)=C(CSc3c[nH]nn3)CS[C@H]12)c1ccc(O)cc1 [Cefatrizine]
PPB (fb) (plasma protein [1]; [5]): 0.59

Nc1cc(-c2ccncc2)c[nH]c1=O [Amrinone]
PPB (fb) (plasma protein [1]; [5]): 0.11

CN(c1nccc(=O)[nH]1)C1CCN(c2nc3ccccc3n2Cc2ccc(F)cc2)CC1 [mizolastine]
PPB (fb) (plasma protein [1]; [4]): 0.98

methacycline
PPB (fb) (plasma protein [1]; plasma): 0.84

O=P(O)(O)OC(Cn1cncn1)(Cn1cncn1)c1ccc(F)cc1F [Fosfluconazole]
PPB (fb) (plasma protein [1]; [3]): 0.96

COc1ccnc(C[S+]([O-])c2nc3ccc(OC(F)F)cc3[nH]2)c1OC (stereo not shown) [Pantoprazole]
PPB (fb) (plasma protein [1]; [5]): 0.98

C[C@@H](O)[C@H]1C(=O)N2C(C(=O)O)=C(S[C@@H]3CN[C@H](C(=O)Nc4cccc(C(=O)O)c4)C3)[C@H](C)[C@H]12 [Ertapenem]
PPB (fb) (plasma protein [1]; [5]): 0.91

CN(C)CCCN1c2ccccc2CCc2cc(O)ccc21 [Hydroxyimipramine__ 2-]
PPB (fb) (plasma protein [1]; [5]): 0.64

O=C1c2ccccc2C(=O)C1c1ccccc1 [phenindione]
PPB (fb) (plasma protein [1]; [4]): 0.97

Cc1ncsc1CCCl [Chlormethiazole]
PPB (fb) (plasma protein [1]; plasma): 0.64

CCCCCCC(N)C(=O)NC1C(=O)N2C1SC(C)(C)C2C(=O)O (stereo not shown) [penicillin13]
PPB (fb) (plasma protein [1]; [3]): 0.66

CCCCN1CCCCC1C(=O)Nc1c(C)cccc1C (stereo not shown) [Bupivacaine]
PPB (fb) (plasma protein [1]; [5]): 0.95

C=C(Br)CC1(C(C)C)C(=O)NC(=O)NC1=O [ibomal]
PPB (fb) (plasma protein [1]; plasma): 0.34

CNC(=C[N+](=O)[O-])NCCSCc1csc(CN(C)C)n1 [Nizatidine]
PPB (fb) (plasma protein [1]; [5]): 0.32

COc1cc(NS(C)(=O)=O)ccc1Nc1c2ccccc2nc2ccccc12 [Amsacrine]
PPB (fb) (plasma protein [1]; [5]): 0.98

COC(C(=O)NC1C(=O)N2C1SC(C)(C)C2C(=O)O)c1cc(Cl)c(Cl)c(Cl)c1 (stereo not shown) [penicillin43]
PPB (fb) (plasma protein [1]; [4]): 0.96

CN1C(C(=O)Nc2ccccn2)=C(O)c2ccccc2S1(=O)=O [piroxicam]
PPB (fb) (plasma protein [1]; [4]): 0.99

CN1CC[C@]23CCCC[C@H]2[C@H]1Cc1ccc(O)cc13 [levorphanol]
PPB (fb) (plasma protein [1]; plasma): 0.4

c1ccc2c(c1)Sc1ccccc1N2CC1CN2CCC1CC2 (stereo not shown) [mequitazine]
PPB (fb) (plasma protein [1]; [4]): 0.9

CN1C(=O)CC(=O)N(c2ccccc2)c2cc(Cl)ccc21 [clobazam]
PPB (fb) (plasma protein [1]; plasma): 0.92

Nc1ccn([C@@H]2O[C@H](CO)[C@@H](O)C2(F)F)c(=O)n1 [Gemcitabine]
PPB (fb) (plasma protein [1]; [5]): 0.01

COC(=O)[C@H](c1ccccc1Cl)N1CCc2sccc2C1 [clopidogrel]
PPB (fb) (plasma protein [1]; [3]): 0.98

COc1ccc2ccccc2c1C(=O)NC1C(=O)N2C1SC(C)(C)C2C(=O)O (stereo not shown) [penicillin67]
PPB (fb) (plasma protein [1]; [4]): 0.8

dicoumarol
PPB (fb) (plasma protein [1]; plasma): 0.99

Fluorescein
PPB (fb) (plasma protein [1]; plasma): 0.87

Oritavancin
PPB (fb) (plasma protein [2]): 0.85

CC(=O)c1ccc(S(=O)(=O)NC(=O)NC2CCCCC2)cc1 [acetohexamide]
PPB (fb) (plasma protein [1]; [3]): 0.96

CC(C)C(=O)Nc1ccc([N+](=O)[O-])c(C(F)(F)F)c1 [flutamide]
PPB (fb) (plasma protein [1]; [4]): 0.9
